Article PMC4898786 (Nature, 2016)

Columns and labels:
[1] = target: ts3 SERT (Y110A, I291A, T439S) (Homo sapiens, UniProt P31645, C554A/C580A/C622A/I291A/T439S/Y110A); experiment: [14C]5-HT uptake in transfected HEK293 cells, Michaelis-Menten; assay type: cell-based
[2] = target: ts2 SERT (I291A, T439S) (Homo sapiens, UniProt P31645, C554A/C580A/C622A/I291A/T439S)

NCCc1c[nH]c2ccc(O)cc12 [serotonin, 5-hydroxytryptamine]
serotonin transport activity [1]: No detectable transport activity | Vmax of serotonin transport [2]: 21 ± 5 pmol/min | Km ([2]; read-out: KM of serotonin transport): 4.5 ± 0.6 µM
